Assay results from patent US9840509B2, “Heterocyclic compounds” (CADILA HEALTHCARE LIMITED, priority 2014, dated 2017).

Legend:
[1] = target: T1, recombinant purified human BTK (Homo sapiens, UniProt Q06187); assay: In vitro BTK kinase assay on ADP Glo platform; format: biochemical; settings: 2 hr room temperature, read-out: In-vitro BTK inhibitory activity: IC50
T1 construct: purchased SignalChem, USA
Method: Testing of Compounds of the Invention Biological Studies: In vitro BTK Inhibitory Activity Assay:
In vitro BTK inhibitory activity of test compounds were screened using BTK kinase assay on ADP Glo platform (Li, H., Totoritis, R. D., Lor, L. A., Schwartz, B., Caprioli, P., Jurewicz, A. J and Zhang, G., Assay Drug Dev. Technol., 2009, 7(6), 598-605). Briefly, fixed amount of recombinant purified human BTK (3 ng/reaction from SignalChem, USA) were incubated with increasing concentration of test compounds, in 1× kinase reaction buffer (40 mM Tris-Cl, pH7.5, 20 mM MgCl2, 2 mM MnCl2, 0.1 mg/ml BSA and 50 μM DTT). Enzymatic reaction was initiated by adding a substrate cocktail containing 50 µM of ATP (final concentration) and […] of polyGln4Tyr1 (Signal Chem) in total 25 μl of reaction, in round bottom white 96 well plate. The reaction mixture was incubated at room temperature for 2 hr. After 2 hr of incubation, 10 μl of the reaction mix was mixed with […] of ADP Glo reagent, in another round bottom white 96 well plate and incubated at room temperature for 40 min. This was followed by addition of kinase detection reagent (20 μl per reaction) and incubation at room temperature for 30 min. Finally, plate was read for luminescence at an integration time of 500 millisecond per well. Data were plotted taking Enzyme with no inhibitor set as the 100% kinase activity and for dose response curve, % Kinase activity was plotted against conc on Log scale and IC50 was determined by non linear curve fitting method using GraphPad Prism software 6. The in vitro BTK inhibitory activity (IC50) for representative compounds are listed in […]

CYP 1A2 = target: T2, CYP 1A2 (Homo sapiens, UniProt P05177); assay: CYP inhibition in human liver microsomes, 1A2; format: in vitro ADME; settings: pH 7.4, @ 10 μM concn
T2 construct: from tissue; host or cells: human liver microsomes
T2 sequence (P05177 1-516): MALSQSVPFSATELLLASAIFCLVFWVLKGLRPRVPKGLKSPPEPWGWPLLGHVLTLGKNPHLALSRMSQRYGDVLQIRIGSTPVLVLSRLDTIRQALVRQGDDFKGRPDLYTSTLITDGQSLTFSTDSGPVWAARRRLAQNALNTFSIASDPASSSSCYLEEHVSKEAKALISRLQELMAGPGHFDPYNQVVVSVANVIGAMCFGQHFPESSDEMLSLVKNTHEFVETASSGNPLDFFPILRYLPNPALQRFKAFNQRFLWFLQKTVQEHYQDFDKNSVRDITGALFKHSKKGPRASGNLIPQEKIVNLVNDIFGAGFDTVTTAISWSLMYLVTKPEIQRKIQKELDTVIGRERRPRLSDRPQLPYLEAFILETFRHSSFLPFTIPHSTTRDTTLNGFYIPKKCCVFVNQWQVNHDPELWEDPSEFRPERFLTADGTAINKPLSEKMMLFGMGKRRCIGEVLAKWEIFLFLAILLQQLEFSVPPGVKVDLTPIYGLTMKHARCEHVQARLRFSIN
Method: (§1) CYP Inhibition Studies: CYP inhibition studies were performed with test compounds, at two concentrations ([…] and 10 μM), using human liver microsomes (Yao, M., Zhu, M., Sinz, M. W., Zhang, H., Humphreys, W. F., Rodrigues, A. D and Dai, R., Journal of Pharmaceutical and Biomedical Analysis, 2007, 44, 211-223; Walsky, R. L and Obach, R. S., Drug Metab. Dispos., 2004, 32, 647-660). Human liver microsomes were mixed with 100 mM phosphate buffer (pH 7.4) and probe substrate and warmed to […] in microcentrifuge tubes. Aliquots of this mixture (499 μL) were transferred to each pre-labeled microcentrifuge tubes, followed by addition of the 1 μL of inhibitors (test compound/CYP-specific positive control inhibitor) or control solvent (DMSO). Aliquots of this mixture (90 μL) were transferred to each pre-labeled microcentrifuge tubes in duplicate. Final solvent concentrations were 0.2% (v/v) or less. Incubations were commenced with the addition of 10 μL NADPH stock (assay concentration, 1 mM) to a final incubation volume of 100 μL and incubated in shaking water bath (at 37° C. and 100 rpm), for the period defined in Tables 1. Incubations were terminated by addition of 400 μL of termination solvent (CH3CN) containing internal standard. The terminated samples were vortex-mixed, centrifuged at 10000 rpm for 5 min and supernatant transferred into HPLC vials for LC-MS/MS analysis to monitor metabolites produced by marker CYP reactions. […] Animals

CYP 2C8 = target: T3, CYP 2C8 (Homo sapiens, UniProt P10632); assay: CYP inhibition in human liver microsomes, 2C8; format: in vitro ADME; settings: pH 7.4, @ 10 μM concn
T3 construct: from tissue; host or cells: human liver microsomes
T3 sequence (P10632 1-490): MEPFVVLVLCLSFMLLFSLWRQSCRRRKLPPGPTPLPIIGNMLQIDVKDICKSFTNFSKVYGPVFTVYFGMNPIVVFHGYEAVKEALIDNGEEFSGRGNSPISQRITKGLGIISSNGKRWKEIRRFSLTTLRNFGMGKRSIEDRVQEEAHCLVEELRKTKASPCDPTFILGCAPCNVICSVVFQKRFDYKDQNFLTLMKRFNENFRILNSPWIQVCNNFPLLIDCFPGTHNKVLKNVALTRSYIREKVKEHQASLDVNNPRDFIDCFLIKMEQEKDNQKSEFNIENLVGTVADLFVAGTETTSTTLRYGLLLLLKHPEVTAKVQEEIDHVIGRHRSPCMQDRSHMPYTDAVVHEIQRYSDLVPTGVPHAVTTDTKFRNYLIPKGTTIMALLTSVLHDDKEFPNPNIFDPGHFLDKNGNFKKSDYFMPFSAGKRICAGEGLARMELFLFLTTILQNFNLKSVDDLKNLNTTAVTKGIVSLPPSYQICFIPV
Method: as §1

CYP 2C9 = target: T4, CYP 2C9 (Homo sapiens, UniProt P11712); assay: CYP inhibition in human liver microsomes, 2C9; format: in vitro ADME; settings: pH 7.4, @ 10 μM concn
T4 construct: from tissue; host or cells: human liver microsomes
T4 sequence (P11712 whole entry): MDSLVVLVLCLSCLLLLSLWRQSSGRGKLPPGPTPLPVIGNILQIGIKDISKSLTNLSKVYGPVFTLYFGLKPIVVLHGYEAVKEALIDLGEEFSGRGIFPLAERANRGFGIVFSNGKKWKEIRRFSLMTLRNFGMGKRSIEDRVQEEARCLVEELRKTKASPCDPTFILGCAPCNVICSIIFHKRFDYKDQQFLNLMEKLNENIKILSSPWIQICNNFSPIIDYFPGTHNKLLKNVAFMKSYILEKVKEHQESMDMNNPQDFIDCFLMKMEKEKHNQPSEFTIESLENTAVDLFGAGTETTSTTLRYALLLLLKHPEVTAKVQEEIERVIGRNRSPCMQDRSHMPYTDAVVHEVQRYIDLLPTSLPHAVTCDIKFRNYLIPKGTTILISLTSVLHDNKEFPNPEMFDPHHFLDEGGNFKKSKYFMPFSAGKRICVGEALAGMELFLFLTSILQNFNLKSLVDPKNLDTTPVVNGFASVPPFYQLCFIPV
Method: as §1

CYP 2C19 = target: T5, CYP 2C19 (Homo sapiens, UniProt P33261); assay: CYP inhibition in human liver microsomes, 2C19; format: in vitro ADME; settings: pH 7.4, @ 10 μM concn
T5 construct: from tissue; host or cells: human liver microsomes
T5 sequence (P33261 whole entry): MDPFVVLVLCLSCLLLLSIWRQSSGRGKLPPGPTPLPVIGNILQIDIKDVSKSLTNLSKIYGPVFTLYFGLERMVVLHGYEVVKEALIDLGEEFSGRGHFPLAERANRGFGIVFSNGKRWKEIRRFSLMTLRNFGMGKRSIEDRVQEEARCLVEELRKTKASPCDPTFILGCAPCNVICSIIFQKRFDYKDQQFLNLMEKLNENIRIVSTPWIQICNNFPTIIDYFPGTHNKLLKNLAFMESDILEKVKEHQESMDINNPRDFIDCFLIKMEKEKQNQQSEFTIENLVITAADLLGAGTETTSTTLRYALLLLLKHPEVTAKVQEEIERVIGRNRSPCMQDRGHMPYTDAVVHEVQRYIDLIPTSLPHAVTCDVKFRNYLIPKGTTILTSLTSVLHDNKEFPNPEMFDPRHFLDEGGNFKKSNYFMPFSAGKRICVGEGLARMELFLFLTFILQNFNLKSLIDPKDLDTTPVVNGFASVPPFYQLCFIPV
Method: as §1

CYP 2D6 = target: T6, CYP 2D6 (Homo sapiens, UniProt P10635); assay: CYP inhibition in human liver microsomes, 2D6; format: in vitro ADME; settings: pH 7.4, @ 10 μM concn
T6 construct: from tissue; host or cells: human liver microsomes
T6 sequence (P10635 whole entry): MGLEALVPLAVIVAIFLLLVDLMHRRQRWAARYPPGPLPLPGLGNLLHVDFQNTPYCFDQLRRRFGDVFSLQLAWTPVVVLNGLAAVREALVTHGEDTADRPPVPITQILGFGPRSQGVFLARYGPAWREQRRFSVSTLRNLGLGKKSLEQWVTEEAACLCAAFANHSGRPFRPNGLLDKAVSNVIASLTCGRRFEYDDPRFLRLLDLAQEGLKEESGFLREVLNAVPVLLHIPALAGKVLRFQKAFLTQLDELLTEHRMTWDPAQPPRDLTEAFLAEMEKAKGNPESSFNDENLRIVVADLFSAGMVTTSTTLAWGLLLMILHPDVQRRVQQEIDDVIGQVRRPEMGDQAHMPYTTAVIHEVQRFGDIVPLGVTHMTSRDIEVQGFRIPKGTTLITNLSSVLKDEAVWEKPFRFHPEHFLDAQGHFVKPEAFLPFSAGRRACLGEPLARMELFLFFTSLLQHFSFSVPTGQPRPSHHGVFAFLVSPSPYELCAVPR
Method: as §1

CYP 3A4 = target: T7, CYP 3A4 (Homo sapiens, UniProt P08684); assay: CYP inhibition in human liver microsomes, 3A4; format: in vitro ADME; settings: pH 7.4, @ 10 μM concn
T7 construct: from tissue; host or cells: human liver microsomes
T7 sequence (P08684 whole entry): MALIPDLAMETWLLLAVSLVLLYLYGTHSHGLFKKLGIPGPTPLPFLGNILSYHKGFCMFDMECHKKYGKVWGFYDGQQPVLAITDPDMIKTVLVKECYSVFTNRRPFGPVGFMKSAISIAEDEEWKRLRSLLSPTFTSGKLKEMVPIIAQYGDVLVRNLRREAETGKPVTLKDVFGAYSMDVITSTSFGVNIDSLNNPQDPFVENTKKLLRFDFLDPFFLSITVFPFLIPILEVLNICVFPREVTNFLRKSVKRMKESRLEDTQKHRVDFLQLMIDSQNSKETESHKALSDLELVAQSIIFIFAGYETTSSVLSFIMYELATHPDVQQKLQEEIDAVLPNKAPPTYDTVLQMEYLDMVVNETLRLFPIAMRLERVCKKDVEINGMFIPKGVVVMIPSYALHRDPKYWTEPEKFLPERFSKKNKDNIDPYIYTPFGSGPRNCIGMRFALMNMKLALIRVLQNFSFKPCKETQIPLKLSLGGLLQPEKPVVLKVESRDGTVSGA
Method: as §1

T1 sequence (Q06187 whole entry): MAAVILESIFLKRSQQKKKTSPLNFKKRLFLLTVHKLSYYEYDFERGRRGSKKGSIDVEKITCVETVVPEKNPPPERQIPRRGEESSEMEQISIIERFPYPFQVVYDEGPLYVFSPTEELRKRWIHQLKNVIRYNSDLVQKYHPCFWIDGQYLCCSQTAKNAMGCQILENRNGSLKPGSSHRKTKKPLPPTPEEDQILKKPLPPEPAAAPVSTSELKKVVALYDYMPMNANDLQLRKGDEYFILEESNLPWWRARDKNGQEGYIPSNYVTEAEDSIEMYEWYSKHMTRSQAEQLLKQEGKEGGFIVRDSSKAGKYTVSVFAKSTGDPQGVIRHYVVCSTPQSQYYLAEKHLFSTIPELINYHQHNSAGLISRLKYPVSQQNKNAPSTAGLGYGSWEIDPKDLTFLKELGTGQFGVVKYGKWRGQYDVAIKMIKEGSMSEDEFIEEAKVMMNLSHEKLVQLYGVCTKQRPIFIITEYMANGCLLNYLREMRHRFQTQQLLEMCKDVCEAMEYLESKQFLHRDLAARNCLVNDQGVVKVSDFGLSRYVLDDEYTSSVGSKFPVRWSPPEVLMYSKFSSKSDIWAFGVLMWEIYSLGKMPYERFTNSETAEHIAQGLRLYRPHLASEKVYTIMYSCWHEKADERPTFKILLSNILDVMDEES

Row | Structure (SMILES) | IC50 [1] [nM] | inhibition at 10 μM (CYP 1A2) [%] | inhibition at 10 μM (CYP 2C8) [%] | inhibition at 10 μM (CYP 2C9) [%] | inhibition at 10 μM (CYP 2C19) [%] | inhibition at 10 μM (CYP 2D6) [%] | inhibition at 10 μM (CYP 3A4) [%]
1 | C#CC(=O)N1CC2CC(n3nc(-c4ccc(Oc5ccccc5)cc4)c4c(N)ncnc43)CC2C1 (centres unmarked) [Compound 11, 1-(5-(4-amino-3-(4-phenoxyphenyl)-1H-pyrazolo[3,4-d]pyrimidin-1-yl)hexahydrocyclopenta[c]pyrrol-2(1H)-yl)prop-2-yn-1-one] | 13 | < 50 | < 50 | < 50 | < 50 | < 50 | < 50
2 | C=CC(=O)N1CC2CC(n3nc(-c4ccc(Oc5ccccc5)c(OC)c4)c4c(N)ncnc43)CC2C1 (centres unmarked) [Compound 12, 1-(5-(4-amino-3-(3-methoxy-4-phenoxyphenyl)-1H-pyrazolo[3,4-d]pyrimidin-1-yl)hexahydrocyclopenta[c]pyrrol-2(1H)-yl)prop-2-en-1-one] | 37 | < 50 | > 50 | > 50 | < 50 | < 50 | > 50
3 | C=CC(=O)N1CC2CC(n3nc(-c4ccc(C(=O)Nc5ccccn5)cc4)c4c(N)ncnc43)CC2C1 (centres unmarked) [Compound 13, 4-(1-(2-acryloyloctahydrocyclopenta[c]pyrrol-5-yl)-4-amino-1H-pyrazolo[3,4-d]pyrimidin-3-yl)-N-(pyridin-2-yl)benzamide] | 1.8 | < 50 | < 50 | < 50 | > 50 | < 50 | < 50
4 | C=CC(=O)N1CC2CC(n3nc(-c4ccc5nc(-c6ccccc6)sc5c4)c4c(N)ncnc43)CC2C1 (centres unmarked) [Compound 14, 1-(5-(4-amino-3-(2-phenylbenzo[d]thiazol-6-yl)-1H-pyrazolo[3,4-d]pyrimidin-1-yl)hexahydrocyclopenta[c]pyrrol-2(1H)-yl)prop-2-en-1-one] | 1.4 | < 50 | < 50 | < 50 | < 50 | < 50 | < 50
5 | C=CC(=O)N1CC2CC(n3nc(-c4ccc5c(c4)OCO5)c4c(N)ncnc43)CC2C1 (centres unmarked) [Compound 15, 1-(5-(4-amino-3-(benzo[d] [1,3]dioxol-5-yl)-1H-pyrazolo[3,4-d]pyrimidin-1-yl)hexahydrocyclopenta[c]pyrrol-2(1H)-yl)prop-2-en-1-one] | 18 | < 50 | < 50 | < 50 | < 50 | < 50 | > 50
6 | C=CS(=O)(=O)N1CC2CC(n3nc(-c4ccc(Oc5ccccc5)cc4)c4c(N)ncnc43)CC2C1 (centres unmarked) [Compound 18, 3-(4-phenoxyphenyl)-1-(2-(vinylsulfonyl)octahydrocyclopenta[c]pyrrol-5-yl)-1H-pyrazolo[3,4-d]pyrimidin-4-amine] | 218 | < 50 | > 50 | > 50 | < 50 | < 50 | > 50
7 | C=CC(=O)N1CC2CC(n3nc(-c4ccc5nc(Oc6ccccc6)sc5c4)c4c(N)ncnc43)CC2C1 (centres unmarked) [Compound 20, 1-(5-(4-amino-3-(2-phenoxybenzo[d]thiazol-6-yl)-1H-pyrazolo [3,4-d]pyrimidin-1-yl)hexahydrocyclopenta[c]pyrrol-2(1H)-yl)prop-2-en-1-one] | 223 | < 50 | > 50 | > 50 | < 50 | < 50 | > 50

Further lines, results first:

Row | IC50 [1] [nM] | inhibition at 10 μM (CYP 1A2) [%] | inhibition at 10 μM (CYP 2C8) [%] | inhibition at 10 μM (CYP 2C9) [%] | inhibition at 10 μM (CYP 2C19) [%] | inhibition at 10 μM (CYP 2D6) [%] | inhibition at 10 μM (CYP 3A4) [%] | Structure (SMILES)
8 | 1.7 | < 50 | < 50 | < 50 | < 50 | < 50 | < 50 | C=CC(=O)N1CC2CC(n3nc(-c4ccc(-c5nnc(C)o5)cc4)c4c(N)ncnc43)CC2C1 (centres unmarked) [Compound 16, 1-(5-(4-amino-3-(4-(5-methyl-1,3,4-oxadiazol-2-yl)phenyl)-1H-pyrazolo[3,4-d]pyrimidin-1-yl)hexahydrocyclopenta[c]pyrrol-2(1H)-yl)prop-2-en-1-one]
9 | 5 | < 50 | < 50 | < 50 | < 50 | < 50 | > 50 | C=CC(=O)N1CC2CC(n3nc(-c4ccc5ncoc5c4)c4c(N)ncnc43)CC2C1 (centres unmarked) [Compound 17, 1-(5-(4-amino-3-(benzo[d]oxazol-6-yl)-1H-pyrazolo[3,4-d]pyrimidin-1-yl)hexahydrocyclopenta[c]pyrrol-2(1H)-yl)prop-2-en-1-one]
10 | 4 | < 50 | < 50 | < 50 | < 50 | < 50 | < 50 | C=CC(=O)N1CC2CC(n3nc(-c4ccc5nc(-c6ccccc6)oc5c4)c4c(N)ncnc43)CC2C1 (centres unmarked) [Compound 19, 1-(5-(4-amino-3-(2-phenylbenzo[d]oxazol-6-yl)-1H-pyrazolo[3,4-d]pyrimidin-1-yl)hexahydrocyclopenta[c]pyrrol-2(1H)-yl)prop-2-en-1-one]
11 | 50 | > 50 | < 50 | < 50 | < 50 | < 50 | < 50 | C=CC(=O)N1CC2CC(n3nc(-c4ccc(-c5cnn(C)c5)cc4)c4c(N)ncnc43)CC2C1 (centres unmarked) [Compound 21, 1-(5-(4-amino-3-(4-(1-methyl-1H-pyrazol-4-yl)phenyl)-1H-pyrazolo [3,4-d]pyrimidin-1-yl)hexahydrocyclopenta[c]pyrrol-2(1H)-yl)prop-2-en-1-one]
